Biological target: T1, human beta-3-adrenergic receptor (Homo sapiens, UniProt P13945)
T1 construct: Chinese hamster ovary (CHO) cells that stably express full-length human beta-3-adrenergic receptor; expressed in transfected cells
Assay: cAMP production (SPA) in CHO cells stably expressing human beta-3-adrenergic receptor, agonist activity
Assay type: cell-based
Settings: cAMP production in CHO cells expressing human beta-3-adrenergic receptor; compounds binned (≦1 μM or >1 μM); read-out: Beta-3 Agonistic Activity, EC50 values
Procedure: The cell line is grown in 90% F12 nutrient mixture (HAM), 10% fetal bovine serum, 100 units/ml penicillin G sodium, […] streptomycin sulfate, and 2 mM L-glutamine at 37° C. in 95% air and 5% CO2. The transfected cell line is maintained with G418 (800ug/ml).
To test agonist activity, cells are exposed to test compound and then assayed for cAMP production. […] Test compounds are assayed from 10 μM to 3 nM with 3-fold serial dilutions. The control agonist, isoproterenol (10 mM stock in 1.1 mM ascorbate), is assayed by 3-fold dilution beginning at 1 μM. Following a 30-minute incubation with the test compounds, the buffer/compound mixture is removed. […] The cAMP values are then plotted to ascertain the EC50 of each compound tested.

T1 sequence (P13945 whole entry): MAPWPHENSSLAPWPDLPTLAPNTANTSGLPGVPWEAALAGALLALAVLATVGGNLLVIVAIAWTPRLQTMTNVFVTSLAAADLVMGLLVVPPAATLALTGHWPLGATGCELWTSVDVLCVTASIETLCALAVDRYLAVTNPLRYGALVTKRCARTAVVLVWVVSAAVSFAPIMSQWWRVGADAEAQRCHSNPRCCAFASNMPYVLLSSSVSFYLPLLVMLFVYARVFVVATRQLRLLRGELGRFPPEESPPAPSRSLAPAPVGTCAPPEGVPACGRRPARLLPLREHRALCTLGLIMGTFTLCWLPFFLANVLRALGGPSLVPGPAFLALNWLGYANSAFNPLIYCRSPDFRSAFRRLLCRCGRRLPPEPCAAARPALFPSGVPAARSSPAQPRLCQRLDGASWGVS

SMILES	EC50 [nM]
O=C(NC1CCCCC1)c1cc(-c2ccc3c(c2)CC[C@H](CNC[C@H](O)COc2ccccc2)O3)ccn1 [Example 96]	> 1000
COC(=O)c1ccc(-c2ccc3c(c2)CC[C@H](CNC[C@H](O)COc2cccc4[nH]c5ccccc5c24)O3)cc1 [Example 102]	> 1000
CCOC(=O)c1nc(-c2ccc3c(c2)CC[C@H](CNC[C@H](O)COc2ccccc2)O3)oc1-c1ccccc1 [Example 134]	> 1000
CCOC(=O)c1sc(-c2ccc3c(c2)CC[C@H](CNC[C@H](O)COc2ccccc2)O3)nc1-c1ccccc1 [Example 136]	> 1000
CCOC(=O)c1sc(-c2ccc3c(c2)CC[C@H](CNC[C@H](O)COc2ccccc2)O3)nc1C(C)C [Example 137]	> 1000
COC(=O)c1nc(-c2ccc3c(c2)CC[C@H](CNC[C@H](O)COc2ccccc2)O3)sc1C(C)C [Example 138]	> 1000
CC(C)c1cccc(C(C)C)c1OC[C@@H](O)CNC[C@H]1CCc2cc(-c3ccc(C(=O)O)cc3)ccc2O1 [Example 140, 4-[(2R)-2-({[(2S)-3-(2,6-diisopropylphenoxy)-2-hydroxypropyl]amino}methyl)-3,4-dihydro-2H-chromen-6-yl]benzoic acid]	> 1000
CCc1ccc(SC[C@@H](O)CNC[C@H]2CCc3cc(-c4ccc(C(=O)O)cc4)ccc3O2)cc1 [Example 170]	> 1000
O=C(O)c1ccc(-c2ccc3c(c2)CC[C@H](CNC[C@H](O)CSc2ccc(Cl)cc2)O3)cc1 [Example 173]	> 1000
O=C(O)c1ccc(-c2ccc3c(c2)CC[C@H](CNC[C@H](O)CSc2cccc(F)c2)O3)cc1 [Example 175]	> 1000
O=C(O)c1ccc(-c2ccc3c(c2)CC[C@H](CNC[C@H](O)CSc2ccc(F)cc2)O3)cc1 [Example 176]	> 1000
COc1cccc(SC[C@@H](O)CNC[C@H]2CCc3cc(-c4ccc(C(=O)O)cc4)ccc3O2)c1 [Example 178]	> 1000
COc1ccc(SC[C@@H](O)CNC[C@H]2CCc3cc(-c4ccc(C(=O)O)cc4)ccc3O2)cc1 [Example 179]	> 1000
O=C(O)c1ccc(-c2ccc3c(c2)CC[C@H](CNC[C@H](O)CSc2cccc(C(F)(F)F)c2)O3)cc1 [Example 180]	> 1000
O=C(O)c1ccc(-c2ccc3c(c2)CC[C@H](CNC[C@H](O)CSc2ccc(C(F)(F)F)cc2)O3)cc1 [Example 181]	> 1000
Cc1c(-c2ccc3c(c2)CC[C@H](CNC[C@H](O)COc2ccccc2)O3)c(C(=O)O)nn1C [Example 184]	≤ 1000
O=C(O)c1cc(-c2ccc3c(c2)CC[C@H](CNC[C@H](O)COc2ccccc2)O3)cc2c1OCC2 [Example 185]	≤ 1000
O=C(O)c1csc(-c2ccc3c(c2)CC[C@H](CNC[C@H](O)COc2ccccc2)O3)c1 [Example 186]	≤ 1000
O=C(O)c1nc(-c2ccc3c(c2)CC[C@H](CNC[C@H](O)COc2ccccc2)O3)oc1-c1ccccc1 [Example 187]	≤ 1000
O=C(O)c1nc(-c2ccc3c(c2)CC[C@H](CNC[C@H](O)COc2ccccc2)O3)sc1-c1ccccc1 [Example 188]	≤ 1000

Second part, the compound after the results:

EC50 [nM]	SMILES
≤ 1000	COc1cc(-c2ccc3c(c2)CCC(CNC[C@H](O)COc2ccccc2)O3)ccc1C(=O)O (stereo in doubt) [Example 206, 4-[(2S)-2-({[(2S)-2-hydroxy-3-phenoxypropyl]amino}methyl)-3,4-dihydro-2H-chromen-6-yl]-2-methoxybenzoic acid]
≤ 1000	O=C(O)c1ccc(-c2ccc3c(c2)CCC(CNC[C@H](O)COc2ccccc2)O3)cc1O (stereo in doubt) [Example 213, 2-hydroxy-4-[(2S)-2-({[(2S)-2-hydroxy-3-phenoxypropyl]amino}methyl)-3,4-dihydro-2H-chromen-6-yl]benzoic acid]
≤ 1000	O=C(O)c1ccc(-c2ccc3c(c2)CCC(CNC[C@H](O)COc2ccccc2)O3)cc1-c1ccccc1 (stereo in doubt) [Example 215, 5-[(2S)-2-({[(2S)-2-hydroxy-3-phenoxypropyl]amino}methyl)-3,4-dihydro-2H-chromen-6-yl]-1,1′-biphenyl-2-carboxylic acid]
≤ 1000	O[C@@H](CNC[C@H]1CCc2cc(I)ccc2O1)COc1ccccc1 [Example 80, (2S)-1-({[(2R)-6-iodo-3,4-dihydro-2H-chromen-2-yl]methyl}amino)-3-phenoxy-2-propanol]
≤ 1000	COC(=O)c1ccc(-c2ccc3c(c2)CC[C@H](CNC[C@H](O)COc2ccccc2)O3)cc1 [Example 84, Methyl 4-[(2R)-2-({[(2S)-2-hydroxy-3-phenoxypropyl]amino}methyl)-3,4-dihydro-2H-chromen-6-yl]benzoate]
≤ 1000	COC(=O)c1ccc2cc(-c3ccc4c(c3)CC[C@H](CNC[C@H](O)COc3ccccc3)O4)ccc2c1 [Example 103, methyl 6-[(2R)-2-({[(2S)-2-hydroxy-3-phenoxypropyl]amino}methyl)-3,4-dihydro-02H-chromen-6-yl]-2-naphthoate]
≤ 1000	COC(=O)c1cc(-c2ccc3c(c2)CC[C@H](CNC[C@H](O)COc2ccccc2)O3)cc2c1OCC2 [Example 130]
≤ 1000	CCOC(=O)c1nn(C)c(C)c1-c1ccc2c(c1)CC[C@H](CNC[C@H](O)COc1ccccc1)O2 [Example 131]
≤ 1000	COC(=O)c1csc(-c2ccc3c(c2)CC[C@H](CNC[C@H](O)COc2ccccc2)O3)c1 [Example 132]
≤ 1000	COC(=O)c1cc(-c2ccc3c(c2)CC[C@H](CNC[C@H](O)COc2ccccc2)O3)cs1 [Example 133]
≤ 1000	COC(=O)c1nc(-c2ccc3c(c2)CC[C@H](CNC[C@H](O)COc2ccccc2)O3)sc1-c1ccccc1 [Example 135]
≤ 1000	COCCc1ccc(OC[C@@H](O)CNC[C@H]2CCc3cc(-c4ccc(C(=O)O)cc4)ccc3O2)cc1 [Example 139, 4-{(2R)-2-[({(2S)-2-hydroxy-3-[4-(2-methoxyethyl)phenoxy]propyl}amino)methyl]-3,4-dihydro-2H-chromen-6-yl}benzoic acid]
≤ 1000	O=C(O)c1ccc(-c2ccc3c(c2)CC[C@H](CNC[C@H](O)COc2cccc4[nH]c5ccccc5c24)O3)cc1 [Example 141, 4-[(2R)-2-({[(2S)-3-(9H-Carbazol-4-yloxy)-2-hydroxypropyl]amino}methyl)-3,4-dihydro-2H-chromen-6-yl]benzoic acid]
≤ 1000	O=C(O)c1ccc(-c2ccc3c(c2)CC[C@H](CNC[C@H](O)COc2ccccc2)O3)cc1 [Example 142, 4-[(2R)-2-({[(2S)-2-Hydroxy-3-phenoxyropyl]amino}methyl)-3,4-dihydro-2H-chromen-6-yl]benzoic acid]
≤ 1000	O=C(O)c1ccc(-c2ccc3c(c2)CC[C@H](CNC[C@H](O)COc2ccc(O)cc2)O3)cc1 [Example 163]
≤ 1000	O=C(O)c1ccc(-c2ccc3c(c2)CC[C@H](CNC[C@H](O)COc2ccccc2O)O3)cc1 [Example 164]
≤ 1000	CC(C)c1ccccc1SC[C@@H](O)CNC[C@H]1CCc2cc(-c3ccc(C(=O)O)cc3)ccc2O1 [Example 171]
≤ 1000	O=C(O)c1ccc(-c2ccc3c(c2)CC[C@H](CNC[C@H](O)CSc2ccccc2F)O3)cc1 [Example 174]
≤ 1000	O=C(O)c1ccc2cc(-c3ccc4c(c3)CC[C@H](CNC[C@H](O)COc3ccccc3)O4)ccc2c1 [Example 182]
≤ 1000	O=C(O)c1cc(-c2ccc3c(c2)CC[C@H](CNC[C@H](O)COc2ccccc2)O3)cs1 [Example 183]
